Reference: US20150258107A1, “METHODS AND COMPOSITIONS FOR TREATING DEPRESSION” (DemeRx, Inc., priority 2014, published 2015)

Tests used:
Sprague-Dawley rat = experiment: Single dose toxicity in rats; format: in vivo
Experimental: The objective of this study was to determine the toxicity and toxicokinetic profile of noribogaine HCl following a single oral (gavage) administration in the Sprague-Dawley rat. A single dose of 100, 300 and 800 mg/kg (achieved with doses of 400 mg/kg 3 h+/−30 min apart because of the limitations of maximum dose formulation concentration). Five male rats/group were used. […] Hypoactivity, vocalization, chewing movements, changes in respiration/posture, salivation, stimuli sensitivity, tremors, twitches and penile erection occurred prior to death. […] The NOAEL was determined to be 100 mg/kg.

dogs = experiment: Fourteen day repeat dose toxicity in dogs; format: in vivo, dog
Experimental: The objective of this study was to determine the toxicity profile of noribogaine HCl given following oral (gavage) administration to dogs for 14 days according to the following Table 3 below:
Noribogaine HCl was administered to groups of 4 male and 4 female dogs by single oral gavage daily for 14 days at doses of 0, 0.5, 1.0 and 5.0 mg/kg/day. An additional group of 4 male and 4 female dogs received either the vehicle control or 5.0 mg/kg/day for 14 days and were held for an additional 28 days after cessation of dosing to assess recovery from any potential drug-induced changes. The study was conducted under GLP guidelines and included comprehensive examinations of clinical signs, body weight, clinical pathology parameters, ophthalmologic examinations, ECG recordings and analyses of plasma for bioanalytical measurement of drug levels at appropriate intervals during the study. At the termination of the dosing phase and at the termination of the recovery phase, all dogs were subjected to a complete post-mortem examination including gross examination of major organs and histologic examination of an extensive list of tissues. Additional sections of brain were obtained from cerebrum, cerebellus, brain stem and spinal cord and examined histologically to evaluate potential effects on brain histopathology. In addition, these sections were examined with immunohistochemical stains for GFAP for evidence of gliosis and Calbindin for a more comprehensive examination of cerebellar Purkinje cells.

Sprague-Dawley rats = experiment: Fourteen day repeat dose toxicity in rats; format: in vivo, rat
Experimental: This study was conducted to evaluate the toxicity profile of noribogaine-HCl following oral (gavage) administration to the rat for 14 days following Table 2 below:
Male and female Sprague-Dawley rats, 10/sex/group, were administered 0, 25, 50 or 100 mg/kg noribogaine HCl daily by single oral gavage for 14 days. An additional 5 rats/sex/group in the 0 (control) and 100 mg/kg groups were retained for a 28 day recovery period during which no drug was administered. Six rats/sex/group (3 rats/sex controls) were similarly dosed and sampled on study days 1 and 14 for analysis of noribogaine-HCl concentrations in the blood.

[1] = Human pharmacokinetic study, single oral tablet, fasting healthy volunteers (serum levels); format: in vivo; settings: 3, 10, 30 or 60 mg once orally, healthy volunteers
Experimental: In double blind studies, fasting healthy volunteers (6 per cohort) were treated once orally with a tablet of noribogaine HCl. In escalating cohorts, the volunteers received 3 mg, 10 mg, 30 mg or 60 mg noribogaine.

[2] = Pharmacokinetics of noribogaine in healthy male volunteers (plasma and urine, LCMSMS); settings: for AUC0-216 / AUC0-∞ / Cmax / Tmax / t½: mean (SD)
[3] = glucuronide in plasma after 30 mg noribogaine (n = 6)
[4] = glucuronide in plasma after 60 mg noribogaine (n = 6)
[5] = plasma, 30 mg and 60 mg dose groups

With `CC[C@@H]1C[C@H]2CC3c4[nH]c5ccc(O)cc5c4CCN(C2)C31.Cl` [noribogaine HCl] the Treatment related signs (Sprague-Dawley rat; 100 mg/kg) was “did not show any treatment related signs”, the “Rats with clinical signs (hypoactivity, vocalization, salivation, stimuli sensitivity, loss of limb function, lying on cage floor) persisting until Day 2” value (Sprague-Dawley rat; 300 mg/kg) was 3/5 and the Mortality (Sprague-Dawley rat; 800 mg/kg (two doses of 400 mg/kg 3 h apart), oral gavage, 5 male rats) was “Mortality occurred in all male rats”. For the same molecule, the “Time of mortality after administration of the second dose” value (Sprague-Dawley rat; 800 mg/kg group) was 2 to 3 h, the NOAEL (Sprague-Dawley rat; single oral gavage, male rats) was 100 mg/kg and the “Lacrimal gland changes (only target tissue)” value (dogs; 5 mg/kg/day) was “slight to moderate atrophy and degeneration of the acinar cells”. For the same molecule, the “Lacrimal gland change after 28 days recovery” value (dogs; 5 mg/kg/day recovery group) was “clear evidence of regeneration”, the “Adverse effect in clinical observations, body weights, clinical pathology, ophthalmology, ECG, gross lesions” value (dogs; 0.5, 1.0, 5.0 mg/kg/day oral gavage 14 days, dosing or recovery phase) was “No evidence of adverse effect” and the NOAEL (dogs; 14 days oral gavage, based on lacrimal gland changes at 5 mg/kg/day) was 1 mg/kg/day. It also gave a Body weight change (Sprague-Dawley rats; 100 mg/kg, females) of −2.6%, a Body weight change (Sprague-Dawley rats; 100 mg/kg, males) of −5.5% and a Food consumption change (Sprague-Dawley rats; 100 mg/kg, males and females) of −4.7%. For the same molecule, the “Test article-related effects on mortality, clinical signs, ophthalmoscopy, hematology, coagulation, clinical chemistry, urinalysis, gross necropsy, histopathology” value (Sprague-Dawley rats; 25, 50 or 100 mg/kg daily oral gavage, 14 days) was “no test article-related effects”, the “Brain sections stained for GFAP or Calbindin” value (Sprague-Dawley rats; 14 days oral gavage) was “No treatment-related differences” and the NOAEL (Sprague-Dawley rats; 14 days oral gavage, highest dose tested) was 100 mg/kg. For the same molecule, the Liver weight (Sprague-Dawley rats; mid- and high dose groups) was “Minor increases in liver weight” and the “Clinically relevant adverse effects” value [1] was “no clinically relevant adverse effects were observed”.
In the case of `CC[C@H]1C[C@@H]2C[C@H]3c4[nH]c5ccc(OC6OC(C(=O)O)C(O)C(O)C6O)cc5c4CCN(C2)[C@@H]13` (stereo partly shown) [Noribogaine glucuronide, noribogaine glucuronide], the “Proportion of Cmax and AUC relative to noribogaine” value ([2]; both dose groups (30 mg, 60 mg)) is reported as 3-4%, the AUC0-216 [2, 3] is reported as 25.7 (9.1) ng · hr/ml and the “AUC0-∞” value [2, 3] is reported as 25.8 (9.3) ng · hr/ml. The Cmax [2, 3] was 1.8 (0.6) ng/ml, the Tmax [2, 3] was 3.0 (0.6) hr and the t½ [2, 3] was 20.6 (4.9) hr. For the same molecule, the AUC0-216 [2, 4] was 65.0 (21.5) ng · hr/ml, the “AUC0-∞” value [2, 4] was 67.1 (21.9) ng · hr/ml and the Cmax [2, 4] was 4.1 (1.2) ng/ml. The Tmax [2, 4] was 3.8 (1.2) hr, the t½ [2, 4] was 23.1 (3.0) hr and the Mean half-life [2, 5] was 21 to 23 h. For the same molecule, the “Time of peak concentrations after noribogaine dosing” value [2, 5] was 3 to 4 h and the “Time by which detected in all subjects” value ([2]; plasma, after 30 mg and 60 mg noribogaine) was at most 0.75 h.
